From patent US12590106B2, “Spiromacrocyclic orexin 2 receptor agonists” (H. Lundbeck A/S, priority 2023, dated 2026)
pEC50: −log10 of the molar value.

Molecular target: T1, human Ox2R (Homo sapiens, UniProt O43614)
T1 construct: The gene encoding hOx2R was subcloned into the expression plasmid pcDNA5/FRT/TO; expressed in transfected cells; host or cells: CHO Flp-In cells (pcDNA5/FRT/TO with pOG44 Flp recombinase vector, hygromycin B selection)
T1 sequence (O43614 1-444): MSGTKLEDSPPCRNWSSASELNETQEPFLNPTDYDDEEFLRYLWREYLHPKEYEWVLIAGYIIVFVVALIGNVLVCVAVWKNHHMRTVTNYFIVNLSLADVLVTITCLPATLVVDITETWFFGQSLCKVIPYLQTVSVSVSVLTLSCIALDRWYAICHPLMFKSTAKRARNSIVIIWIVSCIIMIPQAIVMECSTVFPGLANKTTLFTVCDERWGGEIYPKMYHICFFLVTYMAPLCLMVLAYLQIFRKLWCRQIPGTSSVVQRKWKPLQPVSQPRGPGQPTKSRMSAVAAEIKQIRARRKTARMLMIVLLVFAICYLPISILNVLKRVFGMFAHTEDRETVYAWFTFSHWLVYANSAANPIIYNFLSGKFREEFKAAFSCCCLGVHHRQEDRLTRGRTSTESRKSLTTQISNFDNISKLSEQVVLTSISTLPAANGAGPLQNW
Test: Measurement of OX2R agonist activity (cell-based calcium release assay)
Conditions: hOx2R-CHO Flp-In cells, n≥2 tests; for pEC50: intracellular calcium, read-out: EC50; for Emax / Emax (%): normalized to assay buffer (0%) and 10 μM Danavorexton (100%); for Emax: read-out: Emax (%)
Method in brief: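 CHO Flp-In cells stably expressing human Ox2R, dye-loaded 1 h at 37 °C in HBSS/20 mM HEPES pH 7.4 with 2.5 mM probenecid and 10 mM CaCl2, then stimulated with compound.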

Structure (SMILES)	pEC50	Emax	Emax (%)
CS(=O)(=O)N[C@H]1CC[C@@]2(Cc3cccc(c3)-c3cccc(n3)OCc3coc2n3)C1 [Example 47, N-[(1′S,13R)-spiro[7,11-dioxa-20,21-diazatetracyclo[13.3.1.12,6.19,12]henicosa-1(19),2,4,6(21),9,12(20),15,17-octaene-13,3′-cyclopentane]-1′-yl]methanesulfonamide]	8.07	96%	–
CS(=O)(=O)N[C@H]1CC[C@@]2(Cc3cccc(c3)-c3cccc(c3)OCc3coc2n3)C1 [Example 48, N-[(1′S,13R)-spiro[7,11-dioxa-20-azatetracyclo[13.3.1.12,6.19,12]henicosa-1(19),2,4,6(21),9,12(20),15,17-octaene-13,3′-cyclopentane]-1′-yl]methanesulfonamide]	7.82	95%	–
CS(=O)(=O)N[C@H]1CC[C@@]2(Cc3cc(ccn3)-c3ccccc3OCc3coc2n3)C1 [Example 49, N-[(1′S,14S)-spiro[8,12-dioxa-17,21-diazatetracyclo[14.3.1.110,13.02,7]henicosa-1(20),2,4,6,10,13(21),16,18-octaene-14,3′-cyclopentane]-1′-yl]methanesulfonamide]	5.70	94%	–
C[C@H]1C[C@H](NS(C)(=O)=O)C[C@]12Cc1ccc(F)c(c1)-c1cccc(F)c1OCc1coc2n1 [Example 60, N-[(1′S,4′S,14R)-6,19-difluoro-4′-methyl-spiro[8,12-dioxa-21-azatetracyclo[14.3.1.110,13.02,7]henicosa-1(19),2,4,6,10,13(21),16(20),17-octaene-14,3′-cyclopentane]-1′-yl]methanesulfonamide or N-[(1′R,4′R,14S)-6,19-difluoro-4′-methyl-spiro[8,12-dioxa-21-azatetracyclo[14.3.1.110,13.02,7]henicosa-1(19),2,4,6,10,13(21),16(20),17-octaene-14,3′-cyclopentane]-1′-yl]methanesulfonamide]	9.48	–	100%
C[C@H]1C[C@H](NS(C)(=O)=O)C[C@]12Cc1ccc(F)c(c1)-c1cccc(F)c1OCc1coc2n1 [Example 61, N-[(1′S,4′S,14R)-6,19-difluoro-4′-methyl-spiro[8,12-dioxa-21-azatetracyclo[14.3.1.110,13.02,7]henicosa-1(19),2,4,6,10,13(21),16(20),17-octaene-14,3′-cyclopentane]-1′-yl]methanesulfonamide or N-[(1′R,4′R,14S)-6,19-difluoro-4′-methyl-spiro[8,12-dioxa-21-azatetracyclo[14.3.1.110,13.02,7]henicosa-1(19),2,4,6,10,13(21),16(20),17-octaene-14,3′-cyclopentane]-1′-yl]methanesulfonamide]	6.85	–	96%
C[C@@H]1C[C@@H](NS(C)(=O)=O)C[C@@]12Cc1ccc(F)c(c1)-c1ccccc1OCc1coc2n1 [Example 62, N-[(1′R,4′R,14S)-19-fluoro-4′-methyl-spiro[8,12-dioxa-21-azatetracyclo[14.3.1.110,13.02,7]henicosa-1(19),2,4,6,10,13(21),16(20),17-octaene-14,3′-cyclopentane]-1′-yl]methanesulfonamide or N-[(1′S,4′S,14R)-19-fluoro-4′-methyl-spiro[8,12-dioxa-21-azatetracyclo[14.3.1.110,13.02,7]henicosa-1(19),2,4,6,10,13(21),16(20),17-octaene-14,3′-cyclopentane]-1′-yl]methanesulfonamide]	6.80	–	100%
C[C@@H]1C[C@@H](NS(C)(=O)=O)C[C@@]12Cc1ccc(F)c(c1)-c1ccccc1OCc1coc2n1 [Example 63, N-[(1′R,4′R,14S)-19-fluoro-4′-methyl-spiro[8,12-dioxa-21-azatetracyclo[14.3.1.110,13.02,7]henicosa-1(19),2,4,6,10,13(21),16(20),17-octaene-14,3′-cyclopentane]-1′-yl]methanesulfonamide or N-[(1′S,4′S,14R)-19-fluoro-4′-methyl-spiro[8,12-dioxa-21-azatetracyclo[14.3.1.110,13.02,7]henicosa-1(19),2,4,6,10,13(21),16(20),17-octaene-14,3′-cyclopentane]-1′-yl]methanesulfonamide]	8.85	–	100%
CS(=O)(=O)N[C@H]1CC[C@@]2(CO[C@H]3CC[C@H](CC3)c3ccccc3OCc3noc2n3)C1 [Example 64, N-[(1s,1′S,14R,17s)-spiro[8,12,16-trioxa-11,22-diazatetracyclo[15.2.2.110,13.02,7]docosa-2,4,6,10,13(22)-pentaene-14,3′-cyclopentane]-1′-yl]methanesulfonamide]	8.52	100%	–
CS(=O)(=O)N[C@H]1CC[C@@]2(CO[C@H]3CC[C@H](CC3)c3ccccc3OCc3nc2no3)C1 [Example 65, N-[(1s,1′S,14R,17s)-spiro[8,11,16-trioxa-12,22-diazatetracyclo[15.2.2.110,13.02,7]docosa-2,4,6,10(22),12-pentaene-14,3′-cyclopentane]-1′-yl]methanesulfonamide]	7.35	99%	–
CS(=O)(=O)N[C@H]1CC[C@@]2(CO[C@H]3CC[C@H](CC3)c3ncccc3OCc3coc2n3)C1 [Example 66, N-[(1s,1′S,14R,17s)-spiro[8,12,16-trioxa-3,22-diazatetracyclo[15.2.2.110,13.02,7]docosa-2,4,6,10,13(22)-pentaene-14,3′-cyclopentane]-1′-yl]methanesulfonamide]	7.09	94%	–
CS(=O)(=O)N[C@H]1CC[C@@]2(COCCCc3cccc(c3)OCc3coc2n3)C1 [Example 67, N-[(1S,8S)-spiro[2,6,10-trioxa-19-azatricyclo[12.3.1.14,7]nonadeca-1(18),4,7(19),14,16-pentaene-8,3′-cyclopentane]-1′-yl]methanesulfonamide]	5.92	94%	–
Cc1oc2nc1COc1ccccc1-c1cccc(c1)C[C@@]21CC[C@H](NS(C)(=O)=O)C1 [Example 68, N-[(1′S,14R)-11-methylspiro[8,12-dioxa-21-azatetracyclo[14.3.1.110,13.02,7]henicosa-1(19),2,4,6,10,13(21),16(20),17-octaene-14,3′-cyclopentane]-1′-yl]methanesulfonamide]	8.82	98%	–
CS(=O)(=O)N[C@H]1CC[C@@]2(Cc3ccc(F)c(c3)-c3cc(F)cc(F)c3OCc3coc2n3)C1 [Example 69, N-[(1′S,14R)-4,6,19-trifluorospiro[8,12-dioxa-21-azatetracyclo[14.3.1.110,13.02,7]henicosa-1(19),2,4,6,10,13(21),16(20),17-octaene-14,3′-cyclopentane]-1′-yl]methanesulfonamide]	9.70	96%	–
CS(=O)(=O)N[C@H]1CC[C@@]2(CO[C@H]3CC[C@H](CC3)c3cccc(c3)OCCc3coc2n3)C1 [Example 70, N-[(1s,1′S,14R,17s)-spiro[7,12,16-trioxa-22-azatetracyclo[15.2.2.12,6.110,13]tricosa-2,4,6(23),10,13(22)-pentaene-14,3′-cyclopentane]-1′-yl]methanesulfonamide]	8.74	98%	–
CS(=O)(=O)N[C@H]1CC[C@@]2(Cc3ccc(F)c(c3)-c3cccc(F)c3OCC3=NN=C2O3)C1 [Example 71, N-[(1′S,14R)-6,19-difluorospiro[8,21-dioxa-11,12-diazatetracyclo[14.3.1.110,13.02,7]henicosa-1(19),2(7),3,5,10,12,16(20),17-octaene-14,3′-cyclopentane]-1′-yl]methanesulfonamide]	7.31	97%	–
CS(=O)(=O)N[C@H]1CC[C@@]2(CO[C@H]3C[C@H](C3)c3ccccc3OCc3coc2n3)C1 [Example 72, N-[(1′S,10r,12s,15S)-spiro[3,13,17-trioxa-19-azatetracyclo[14.2.1.110,12.04,9]icosa-1(18),4,6,8,16(19)-pentaene-15,3′-cyclopentane]-1′-yl]methanesulfonamide]	6.72	97%	–
CS(=O)(=O)N[C@H]1CC[C@@]2(CO[C@H]3CC[C@H](CC3)c3cccc(c3)OCc3cnc2o3)C1 [Example 73, N-[(1s,1′S,13S,16s)-spiro[7,15,21-trioxa-11-azatetracyclo[14.2.2.12,6.19,12]docosa-2,4,6(22),9,11-pentaene-13,3′-cyclopentane]-1′-yl]methanesulfonamide]	9.03	98%	–
CS(=O)(=O)N[C@H]1CC[C@@]2(Cc3cccc(c3)-c3cccnc3NCc3coc2n3)C1 [Example 74, N-[(1′S,14R)-spiro[12-oxa-6,8,21-triazatetracyclo[14.3.1.110,13.02,7]henicosa-1(20),2,4,6,10,13(21),16,18-octaene-14,3′-cyclopentane]-1′-yl]methanesulfonamide]	7.04	100%	–
